In patent publication US20090326001A1, “THIENOPYRIDINE DERIVATIVES AS MODULATORS OF METABOTROPIC GLUTAMATE RECEPTORS” (priority 2005, published 2009):

Experiments:
[1] = biological target: T1, mGluR5 (UniProt P31424); experiment: mGluR5 receptor binding test ([3H]-M-MPEP displacement); settings: radioligand [3H]-M-MPEP 2 nM; table does not say rat cerebro-cortical membrane or human mGluR5a A18 cells; read-out: mGlu5 Ki
T1 construct: Rat cerebro-cortical membrane preparation
Procedure: Rat cerebro-cortical membrane preparation was used to determine the binding characteristics of reference compounds and novel compounds to the rat mGluR5. The A18 cell line expressing hmGluR5a (purchased from Euroscreen) was used to determine binding characteristics of the chemical compounds to the human mGluR5a receptor. As radioligand [3H]-M-MPEP (2 nM) was used. The nonspecific binding was determined in the presence of 10 μM M-MPEP.

[2] = biological target: T2, rat mGluR1 (Rattus norvegicus, UniProt P23385); experiment: mGluR1 receptor binding test ([3H]R214127 displacement, rat cerebellar membrane); settings: radioligand [3H]R214127 3 nM, read-out: mGlu1 Ki
T2 construct: rat cerebellar membrane preparation was used; from tissue; host or cells: rat cerebellum (membrane preparation)
T2 sequence (P23385 19-1199): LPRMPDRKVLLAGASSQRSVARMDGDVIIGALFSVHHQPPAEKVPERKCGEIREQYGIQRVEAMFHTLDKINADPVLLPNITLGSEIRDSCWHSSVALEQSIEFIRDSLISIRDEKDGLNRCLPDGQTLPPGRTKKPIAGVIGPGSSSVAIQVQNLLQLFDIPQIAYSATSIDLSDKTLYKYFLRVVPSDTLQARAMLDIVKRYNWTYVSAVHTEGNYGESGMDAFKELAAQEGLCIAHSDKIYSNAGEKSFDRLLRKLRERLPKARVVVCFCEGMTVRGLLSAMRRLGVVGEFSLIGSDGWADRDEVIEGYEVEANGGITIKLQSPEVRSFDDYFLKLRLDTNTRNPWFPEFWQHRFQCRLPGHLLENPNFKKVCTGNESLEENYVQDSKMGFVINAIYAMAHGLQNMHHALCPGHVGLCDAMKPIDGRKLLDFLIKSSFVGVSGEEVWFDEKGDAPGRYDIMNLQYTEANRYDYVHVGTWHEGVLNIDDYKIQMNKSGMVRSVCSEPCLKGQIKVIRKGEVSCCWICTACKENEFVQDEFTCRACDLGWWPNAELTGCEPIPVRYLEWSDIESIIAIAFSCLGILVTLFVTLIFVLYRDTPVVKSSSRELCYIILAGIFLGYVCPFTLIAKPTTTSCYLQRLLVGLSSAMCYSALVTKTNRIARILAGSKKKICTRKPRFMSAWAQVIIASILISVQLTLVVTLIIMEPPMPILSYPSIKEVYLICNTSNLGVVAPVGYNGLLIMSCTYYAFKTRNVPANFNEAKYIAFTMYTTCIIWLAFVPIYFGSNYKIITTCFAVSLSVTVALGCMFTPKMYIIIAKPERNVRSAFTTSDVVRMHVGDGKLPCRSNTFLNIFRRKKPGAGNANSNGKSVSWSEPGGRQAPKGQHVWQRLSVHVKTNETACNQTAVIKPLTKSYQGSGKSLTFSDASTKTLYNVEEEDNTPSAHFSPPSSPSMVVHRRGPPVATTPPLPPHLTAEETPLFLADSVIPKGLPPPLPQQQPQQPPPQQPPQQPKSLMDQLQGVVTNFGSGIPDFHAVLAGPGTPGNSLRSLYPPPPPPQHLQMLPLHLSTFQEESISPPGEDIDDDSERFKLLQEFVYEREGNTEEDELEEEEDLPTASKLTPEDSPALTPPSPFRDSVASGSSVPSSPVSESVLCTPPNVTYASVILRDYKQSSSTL
Procedure: MGluR1 receptor binding testes were performed according to modified method of Lavreysen et al. (Mol. Pharm., 2003, 63, 1082). Based on the high homology between the human and rat mGluR1 receptors, rat cerebellar membrane preparation was used to determine the binding characteristics of reference compounds and novel compounds to the rat mGluR1. As radioligand [3H]R214127 (3 nM) was used and the nonspecific binding was determined in the presence of 1 μM of R214127.
IC-50 values were determined from displacement curves by nonlinear regression analysis and were converted by equation method of Cheng and Prusoff (Biochem. Pharmacol., 1973, 22, 3099) to Ki values.

Molecule | Ki [1] [nM] | Ki [2] [nM]
CCOC(=O)CC(=O)c1sc2ncccc2c1-c1ccc(F)cc1 [Compound 24, 3-[3-(4-fluoro-phenyl)-thieno[2,3-b]pyridin-2-yl]-3-oxo-propionic acid ethyl ester] | < 500 | < 500
CCOC(=O)CC(=O)c1sc2ncccc2c1-c1ccc(Cl)cc1 [Compound 23, 3-[3-(4-Chloro-phenyl)-thieno[2,3-b]pyridin-2-yl]-3-oxo-propionic acid ethyl ester] | < 500 | < 500
O=C(CCc1ccc(F)cc1)c1sc2ncccc2c1-c1ccc(F)cc1 [Compound 5, 3-(4-Fluoro-phenyl)-1-[3-(4-fluoro-phenyl)-thieno[2,3-b]pyridin-2-yl]-propan-1-one] | < 500 | < 500
CCOC(=O)CC(=O)c1sc2ncccc2c1-c1ccc(C)cc1 [Compound 22, 3-oxo-3-(3-p-tolyl-thieno[2,3-b]pyridin-2-yl)-propionic acid ethyl ester] | < 500 | < 500
O=C(CCc1cccs1)c1sc2ncccc2c1-c1ccc(F)cc1 [Compound 18] | 500 to 1500 | < 500
O=C(CCc1ccccn1)c1sc2ncccc2c1-c1ccc(F)cc1 [Compound 17] | 500 to 1500 | < 500
O=C(CCc1ccsc1)c1sc2ncccc2c1-c1ccc(F)cc1 [Compound 19, 1-[3-(4-fluoro-phenyl)-thieno[2,3-b]pyridin-2-yl]-3-thiophen-3-yl-propan-1-one] | < 500 | < 500
3-(4-Fluoro-phenyl)-1-[3-(4-fluoro-phenyl)-thieno[2,3-b]pyridin-2-yl]-propenone [Compound 10] | > 1500 | < 500
O=C(CCc1ccoc1)c1sc2ncccc2c1-c1ccc(F)cc1 [Compound 16] | 500 to 1500 | 500 to 1500
O=C(Cc1ccc(F)cc1)c1sc2ncccc2c1-c1ccc(F)cc1 [Compound 3, 2-(4-fluoro-phenyl)-1-[3-(4-fluoro-phenyl)-thieno[2,3-b]pyridin-2-yl]-ethanone] | < 500 | < 500
O=C(Cc1ccc(F)c(F)c1)c1sc2ncccc2c1-c1ccc(Cl)cc1 [Compound 2, 1-[3-(4-chloro-phenyl)-thieno[2,3-b]pyridin-2-yl]-2-(3,4-difluoro-phenyl)-ethanone] | < 500 | < 500
O=C(OCc1ccc(F)cc1)c1sc2ncccc2c1-c1ccc(Cl)cc1 [Compound 20, 3-(4-chloro-phenyl)-thieno[2,3-b]pyridine-2-carboxylic acid 4-fluoro-benzyl ester] | < 500 | < 500
O=C(CCc1cccc(F)c1)c1sc2ncccc2c1-c1ccc(F)cc1 [Compound 4, 3-(3-fluoro-phenyl)-1-[3-(4-fluoro-phenyl)-thieno[2,3-b]pyridin-2-yl]-propan-1-one] | < 500 | < 500
O=C(Cc1ccc(F)cc1)c1sc2ncccc2c1-c1ccc(Cl)cc1 [Compound 1, 1-[3-(4-chloro-phenyl)-thieno[2,3-b]pyridin-2-yl]-2-(4-fluoro-phenyl)-ethanone] | < 500 | < 500

The remaining lines, values ahead:

Ki [1] [nM] | Ki [2] [nM] | Molecule
< 500 | < 500 | CCOC(=O)CC(=O)c1sc2nc(C)ccc2c1-c1ccc(Cl)cc1 [Compound 26, 3-[3-(4-chloro-phenyl)-6-methyl-thieno[2,3-b]pyridin-2-yl]-3-oxo-propionic acid ethyl ester]
< 500 | < 500 | O=C(NCc1ccc(F)cc1)c1sc2ncccc2c1-c1ccc(F)cc1 [Compound 27, 3-(4-Fluoro-phenyl)-thieno[2,3-b]pyridin-2-carboxylic acid (4-fluoro-benzyl)-amide]
> 1500 | > 1500 | CN(Cc1cccs1)C(=O)c1sc2ncccc2c1-c1ccc(Cl)cc1 [Compound 30]
> 1500 | 500 to 1500 | CN(Cc1ccc(F)cc1)C(=O)c1sc2ncccc2c1-c1ccc(Cl)cc1 [Compound 34]
> 1500 | > 1500 | O=C(Nc1ccc(F)cc1)c1sc2ncccc2c1-c1ccc(F)cc1 [Compound 37]
< 500 | < 500 | CCOC(=O)CC(=O)c1sc2ncccc2c1-c1ccccc1 [Compound 25, 3-oxo-3-(3-phenyl-thieno[2,3-b]pyridin-2-yl)-propionic acid ethyl ester]
> 1500 | > 1500 | O=C(Nc1nccs1)c1sc2ncccc2c1-c1ccc(Cl)cc1 [Compound 35]
